Source: the supplement of paper PMC10307832

Experiments:
Experiment in all cases: relative viability (nuclei count vs DMSO), 5 days (fraction); higher = more cells survive
[1] = compound: Cc1ccc2nc(NCCN)c3ncc(C)n3c2c1 + CC(=O)Nc1cccc(-n2c(=O)n(C3CC3)c(=O)c3c(Nc4ccc(I)cc4F)n(C)c(=O)c(C)c32)c1 [Trametinib] (partner 0.02 µM)
Summary of the method: (§1)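 Relative viability equals treated-well nuclei counts divided by vehicle-well nuclei counts. Counts came from 4× images of lung cancer cell lines grown in 1536-well plates for 5 days after pin-tool dosing on the day after seeding. Dosing used one drug alone or a fixed anchor-drug dose plus five library-drug doses (not always all listed) in √10 steps, and values are medians of duplicate plates.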

Salubrinal + Pictilisib = compound: O=C(/C=C/c1ccccc1)NC(NC(=S)Nc1cccc2cccnc12)C(Cl)(Cl)Cl [Salubrinal] + CS(=O)(=O)N1CCN(Cc2cc3nc(-c4cccc5[nH]ncc45)nc(N4CCOCC4)c3s2)CC1 [Pictilisib] (partner 1 µM)
Summary of the method: as §1

[2] = compound: Cc1ccc2nc(NCCN)c3ncc(C)n3c2c1 + CCNC(=O)c1noc(-c2cc(C(C)C)c(O)cc2O)c1-c1ccc(CN2CCOCC2)cc1 [Luminespib] (partner 0.01 µM)
Summary of the method: as §1

Salubrinal + Olaparib = compound: O=C(/C=C/c1ccccc1)NC(NC(=S)Nc1cccc2cccnc12)C(Cl)(Cl)Cl [Salubrinal] + O=C(c1cc(Cc2n[nH]c(=O)c3ccccc23)ccc1F)N1CCN(C(=O)C2CC2)CC1 [Olaparib] (partner 8 µM)
Summary of the method: as §1

Cell Line	relative viability ([1]; first compound 0.04 µM)	relative viability ([1]; first compound 0.1265 µM)	relative viability ([1]; first compound 0.4 µM)	relative viability ([1]; first compound 1.265 µM)	relative viability ([1]; first compound 4 µM)	relative viability (Salubrinal + Pictilisib; first compound 0.08 µM)	relative viability (Salubrinal + Pictilisib; first compound 0.253 µM)	relative viability (Salubrinal + Pictilisib; first compound 0.8 µM)	relative viability (Salubrinal + Pictilisib; first compound 2.53 µM)	relative viability (Salubrinal + Pictilisib; first compound 8 µM)	relative viability ([2]; first compound 0.04 µM)	relative viability ([2]; first compound 0.1265 µM)	relative viability ([2]; first compound 0.4 µM)	relative viability ([2]; first compound 1.265 µM)	relative viability ([2]; first compound 4 µM)	relative viability (Salubrinal + Olaparib; first compound 0.08 µM)	relative viability (Salubrinal + Olaparib; first compound 0.253 µM)	relative viability (Salubrinal + Olaparib; first compound 0.8 µM)	relative viability (Salubrinal + Olaparib; first compound 2.53 µM)	relative viability (Salubrinal + Olaparib; first compound 8 µM)
201T	0.72	0.696	0.713	0.738	0.684	0.591	0.636	0.778	0.706	0.678	1.1	1.05	1.06	1.12	1.07	0.866	0.61	0.861	0.809	0.824
A549	–	–	–	–	–	0.585	0.419	0.517	0.436	0.35	–	–	–	–	–	0.226	0.344	0.438	0.31	0.287
A-427	0.725	0.731	0.705	0.695	0.775	0.805	0.748	0.853	0.785	0.759	1.1	0.784	0.993	1.02	0.846	0.751	0.7	0.793	0.682	0.744
ABC-1	–	–	–	–	–	0.705	0.92	0.812	0.727	0.588	0.507	0.719	–	0.52	0.41	0.831	0.67	0.741	0.633	0.8
BEN	0.97	0.929	1.07	0.958	1.05	0.567	0.606	0.746	0.643	0.549	0.337	0.295	0.425	0.179	0.688	1.33	0.935	1.16	1.04	0.943
CAL-12T	0.352	0.323	0.361	0.357	0.271	0.392	0.488	0.438	0.734	0.528	0.642	0.522	0.715	0.534	0.214	0.7	0.711	0.751	0.725	0.648
COR-L23	0.581	0.564	0.624	0.648	0.506	0.946	0.666	0.899	0.676	0.432	0.682	0.644	0.763	0.47	0.625	0.392	0.323	0.355	0.315	0.325
COR-L 105	0.423	0.506	0.478	0.407	0.414	0.419	0.358	0.406	0.349	0.421	0.921	0.529	0.603	0.57	0.497	0.617	0.732	0.592	0.662	0.587
Calu-6	–	–	–	–	–	1.11	0.817	0.925	0.871	0.792	–	–	–	–	–	0.632	0.522	0.723	0.591	0.453
ChaGo-K-1	0.884	0.924	0.904	0.849	0.77	0.73	0.625	1.21	1.01	0.827	0.7	0.565	0.608	0.517	0.643	0.46	0.404	0.449	0.395	0.383
EBC-1	–	–	–	–	–	0.332	0.373	0.4	0.273	0.248	–	–	–	–	–	0.787	0.616	0.73	0.604	0.585
EKVX	0.383	0.365	0.269	0.261	0.291	0.508	0.494	0.525	0.461	0.482	0.955	0.842	0.886	0.843	0.93	0.986	0.816	0.884	0.852	0.815
EMC-BAC-2	0.927	0.927	0.873	0.954	0.7	0.607	0.454	0.574	0.583	0.565	1.21	1.2	1.19	1.2	1.13	0.496	0.513	0.525	0.466	0.525
EPLC-272H	0.296	0.334	0.282	0.253	0.245	0.293	0.282	0.355	0.33	0.24	0.272	0.253	0.196	0.299	0.159	0.913	–	0.977	0.596	0.452
H3255	0.562	0.554	0.564	0.523	0.575	0.561	0.535	0.576	0.456	0.487	0.878	1.01	0.824	0.926	0.76	0.618	0.62	0.595	0.526	0.569
HARA	0.637	0.648	0.41	0.723	0.761	0.524	0.328	0.558	0.328	0.375	0.822	0.753	0.622	0.681	0.681	0.834	1.17	0.907	0.682	0.634
HCC-15	0.425	0.373	0.364	0.356	0.381	0.77	0.643	0.837	0.728	0.759	0.463	0.239	0.258	0.373	0.16	0.766	0.711	0.784	0.702	0.68
HCC-44	1.11	0.971	1.03	1.1	1.01	0.592	0.591	0.767	0.649	0.493	1.07	1.04	1.06	1.05	0.591	1	0.968	1.03	0.957	1.03
